Assay results published in US11090313B2, “Methods for inhibiting muscle atrophy” (UNIVERSITY OF IOWA RESEARCH FOUNDATION, priority 2010, dated 2021).

Experiments:
Assay type in all cases: in vivo, mouse
[1] = test system: gastrocnemius muscle mRNA; assay: Exon expression arrays of gastrocnemius muscle mRNA in mice fed ursolic acid; settings: 0.27% ursolic acid in chow 5 weeks
Procedure: Following harvest, skeletal muscle samples were immediately placed in RNAlater (Ambion) and stored at −80° C. until further use. […] These raw microarray data from humans and mice have been deposited in NCBI's Gene Expression Omnibus (“GEO”) and are accessible through GEO Series accession numbers GSE28016 and GSE28017, respectively. Exon array studies of the effects of fasting on mouse skeletal muscle, and the effects of spinal cord injury on human skeletal muscle were described previously (Adams C M, et al. (2011) Muscle & nerve 43(1):65-75; Ebert S M, et al. (2010) Molecular Endocrinology 24(4):790-799).
To test this hypothesis, an unbiased approach was used, specifically exon expression arrays were used to analyze gastrocnemius muscle mRNA expression in mice that had been fed diets lacking or containing ursolic acid for 5 weeks. […] Each array assessed pooled gastrocnemius RNA from two mice. Stringent criteria were used for ursolic acid-induced effects on mRNA levels (P<0.005), and mRNAs with low levels of expression were disregarded (i.e. only transcripts that were increased to a mean log2 hybridization signal ≥8, or repressed from a mean log2 hybridization signal ≥8 were included).

[2] = test system: extensor digitorum longus and peroneus muscles; assay: Ex vivo specific tetanic force of muscles from mice fed ursolic acid
Source text: Briefly, six-week old male C57BL/6 mice were provided either standard diet or diet containing 0.27% ursolic acid for 16 weeks before being euthanized. The lower hindlimb was removed (by transsecting the upper hindlimb mid-way through the femur), and placed in Krebs solution aerated with 95% 02 and 5% C02. The gastrocnemius, soleus and tibialis anterior muscles, as well as the distal half of the tibia and fibula were then removed and discarded, leaving the extensor digitorum longus and peroneus muscles with their origins and insertions intact. A suture was placed through the proximal tendon and secured to the distal femur fragment. This ex vivo preparation was then mounted vertically in a water jacket bath (Aurora Scientific 1200A Intact Muscle Test System, filled with aerated Krebs solution) by attaching the suture to a servo-controlled lever (superiorly) and clamping the metatarsals (inferiorly). Passive muscle force was adjusted to a baseline of 1 g, and then muscles were stimulated with supramaximal voltage (80 V) at 100 Hz. The mean time from euthanasia to maximal force measurements was 10 min. After force measurements, muscles were removed and weighed in order to calculate specific titanic force. […] Data are means±SEM from 5-6 mice per diet. P-values were determined with a t-test.

mice = assay: High fat diet with ursolic acid and/or naringenin; settings: 5 weeks
Procedure: To determine this, weight-matched mice were provided ad libitum access to standard (Harlan Teklad formula 7013), high fat diet (HFD; Harlan Teklad formula TD93075), or HFD containing varying concentrations of ursolic acid (0.15%) and/or naringenin (0.5% or 1.5%). After the mice consumed these diets for 5 weeks, fasting blood glucose, total body weight, fat mass, liver weight, grip strength, and skeletal muscle weight was measured.

[3] = 0.27% ursolic acid diet 16 weeks vs standard diet
[4] = HFD with ursolic acid 0.15% or naringenin 0.5% or 1.5%

`C[C@H]1[C@H](C)CC[C@]2(C(=O)O)CC[C@]3(C)C(=CC[C@@H]4[C@@]5(C)CC[C@H](O)C(C)(C)[C@@H]5CC[C@]43C)[C@H]12` [ursolic acid] was tested, and the “levels of mRNAs encoding myostatin, twist or myogenin” value ([1]; gastrocnemius) was “did not alter levels of mRNAs encoding myostatin”, the “levels of IGF1 exons (exons 2-6)” value ([1]; gastrocnemius exon arrays) was “increased levels of all measured IGF1 exons” and the “2310016M24Rik mRNA Change (mean log2, ursolic acid diet minus control diet)” value ([1]; mice, gastrocnemius) was 0.12 log2. The “2610507B11Rik mRNA Change (mean log2, ursolic acid diet minus control diet)” value ([1]; mice, gastrocnemius) was 0.14 log2, the “Acadm mRNA Change (mean log2, ursolic acid diet minus control diet)” value ([1]; mice, gastrocnemius) was −0.11 log2 and the “Adprhl1 mRNA Change (mean log2, ursolic acid diet minus control diet)” value ([1]; mice, gastrocnemius) was −0.26 log2. The “Ahsa2 mRNA Change (mean log2, ursolic acid diet minus control diet)” value ([1]; mice, gastrocnemius) was 0.18 log2, the “Arfgap2 mRNA Change (mean log2, ursolic acid diet minus control diet)” value ([1]; mice, gastrocnemius) was 0.30 log2 and the “Asb5 mRNA Change (mean log2, ursolic acid diet minus control diet)” value ([1]; mice, gastrocnemius) was 0.21 log2. The “BC004004 mRNA Change (mean log2, ursolic acid diet minus control diet)” value ([1]; mice, gastrocnemius) was 0.06 log2, the “C3 mRNA Change (mean log2, ursolic acid diet minus control diet)” value ([1]; mice, gastrocnemius) was 0.70 log2 and the “Cacna1s mRNA Change (mean log2, ursolic acid diet minus control diet)” value ([1]; mice, gastrocnemius) was −0.22 log2. For the same compound, the “Cd24a mRNA Change (mean log2, ursolic acid diet minus control diet)” value ([1]; mice, gastrocnemius) was 0.28 log2, the “Ctsb mRNA Change (mean log2, ursolic acid diet minus control diet)” value ([1]; mice, gastrocnemius) was 0.16 log2 and the “D0H4S114 mRNA Change (mean log2, ursolic acid diet minus control diet)” value ([1]; mice, gastrocnemius) was 0.15 log2. The “D4Wsu53e mRNA Change (mean log2, ursolic acid diet minus control diet)” value ([1]; mice, gastrocnemius) was −0.18 log2, the “Ddit4l mRNA Change (mean log2, ursolic acid diet minus control diet)” value ([1]; mice, gastrocnemius) was −0.32 log2 and the “Eef1e1 mRNA Change (mean log2, ursolic acid diet minus control diet)” value ([1]; mice, gastrocnemius) was 0.15 log2. The “Eif4g3 mRNA Change (mean log2, ursolic acid diet minus control diet)” value ([1]; mice, gastrocnemius) was −0.12 log2, the “Fbp2 mRNA Change (mean log2, ursolic acid diet minus control diet)” value ([1]; mice, gastrocnemius) was 0.37 log2 and the “Fbxo32 (Atrogin-1) mRNA Change (mean log2, ursolic acid diet minus control diet)” value ([1]; mice, gastrocnemius) was −0.35 log2. For the same compound, the “Fhl3 mRNA Change (mean log2, ursolic acid diet minus control diet)” value ([1]; mice, gastrocnemius) was 0.31 log2, the “Fmo1 mRNA Change (mean log2, ursolic acid diet minus control diet)” value ([1]; mice, gastrocnemius) was 0.47 log2 and the “Foxn3 mRNA Change (mean log2, ursolic acid diet minus control diet)” value ([1]; mice, gastrocnemius) was −0.09 log2. For the same compound, the “Gfm1 mRNA Change (mean log2, ursolic acid diet minus control diet)” value ([1]; mice, gastrocnemius) was 0.12 log2, the “Ggct mRNA Change (mean log2, ursolic acid diet minus control diet)” value ([1]; mice, gastrocnemius) was 0.24 log2 and the “Ghitm mRNA Change (mean log2, ursolic acid diet minus control diet)” value ([1]; mice, gastrocnemius) was 0.05 log2. For the same compound, the “Golga4 mRNA Change (mean log2, ursolic acid diet minus control diet)” value ([1]; mice, gastrocnemius) was −0.14 log2, the “Gpx1 mRNA Change (mean log2, ursolic acid diet minus control diet)” value ([1]; mice, gastrocnemius) was 0.36 log2 and the “H19 mRNA Change (mean log2, ursolic acid diet minus control diet)” value ([1]; mice, gastrocnemius) was 0.39 log2. For the same compound, the “Hipk2 mRNA Change (mean log2, ursolic acid diet minus control diet)” value ([1]; mice, gastrocnemius) was 0.38 log2, the “Hk2 mRNA Change (mean log2, ursolic acid diet minus control diet)” value ([1]; mice, gastrocnemius) was 0.26 log2 and the “Hspb8 mRNA Change (mean log2, ursolic acid diet minus control diet)” value ([1]; mice, gastrocnemius) was 0.32 log2. The “Hsph1 mRNA Change (mean log2, ursolic acid diet minus control diet)” value ([1]; mice, gastrocnemius) was 0.30 log2, the “Igf1 mRNA Change (mean log2, ursolic acid diet minus control diet)” value ([1]; mice, gastrocnemius) was 0.56 log2 and the “Klhl31 mRNA Change (mean log2, ursolic acid diet minus control diet)” value ([1]; mice, gastrocnemius) was −0.09 log2. For the same compound, the “Krr1 mRNA Change (mean log2, ursolic acid diet minus control diet)” value ([1]; mice, gastrocnemius) was 0.15 log2, the “Lsm14a mRNA Change (mean log2, ursolic acid diet minus control diet)” value ([1]; mice, gastrocnemius) was 0.18 log2 and the “Lum mRNA Change (mean log2, ursolic acid diet minus control diet)” value ([1]; mice, gastrocnemius) was 0.61 log2. The “Lyz2 mRNA Change (mean log2, ursolic acid diet minus control diet)” value ([1]; mice, gastrocnemius) was 0.71 log2, the “Mlec mRNA Change (mean log2, ursolic acid diet minus control diet)” value ([1]; mice, gastrocnemius) was −0.19 log2 and the “Mrpl46 mRNA Change (mean log2, ursolic acid diet minus control diet)” value ([1]; mice, gastrocnemius) was 0.15 log2. The “Musk mRNA Change (mean log2, ursolic acid diet minus control diet)” value ([1]; mice, gastrocnemius) was 0.31 log2, the “Nampt mRNA Change (mean log2, ursolic acid diet minus control diet)” value ([1]; mice, gastrocnemius) was 0.41 log2 and the “Ndufaf4 mRNA Change (mean log2, ursolic acid diet minus control diet)” value ([1]; mice, gastrocnemius) was 0.14 log2. For the same compound, the “Ndufs2 mRNA Change (mean log2, ursolic acid diet minus control diet)” value ([1]; mice, gastrocnemius) was 0.14 log2, the “Ndufs4 mRNA Change (mean log2, ursolic acid diet minus control diet)” value ([1]; mice, gastrocnemius) was 0.14 log2 and the “Nnt mRNA Change (mean log2, ursolic acid diet minus control diet)” value ([1]; mice, gastrocnemius) was −0.24 log2. For the same compound, the “Npc1 mRNA Change (mean log2, ursolic acid diet minus control diet)” value ([1]; mice, gastrocnemius) was 0.22 log2, the “Nrap mRNA Change (mean log2, ursolic acid diet minus control diet)” value ([1]; mice, gastrocnemius) was −0.14 log2 and the “Ostn mRNA Change (mean log2, ursolic acid diet minus control diet)” value ([1]; mice, gastrocnemius) was 0.43 log2. The “Paip2b mRNA Change (mean log2, ursolic acid diet minus control diet)” value ([1]; mice, gastrocnemius) was −0.16 log2, the “Parp3 mRNA Change (mean log2, ursolic acid diet minus control diet)” value ([1]; mice, gastrocnemius) was 0.32 log2 and the “Pde4dip mRNA Change (mean log2, ursolic acid diet minus control diet)” value ([1]; mice, gastrocnemius) was −0.18 log2. For the same compound, the “Pdha1 mRNA Change (mean log2, ursolic acid diet minus control diet)” value ([1]; mice, gastrocnemius) was 0.18 log2, the “Pnn mRNA Change (mean log2, ursolic acid diet minus control diet)” value ([1]; mice, gastrocnemius) was −0.18 log2 and the “Prdx5 mRNA Change (mean log2, ursolic acid diet minus control diet)” value ([1]; mice, gastrocnemius) was 0.10 log2. The “Psma2 mRNA Change (mean log2, ursolic acid diet minus control diet)” value ([1]; mice, gastrocnemius) was 0.15 log2, the “Sepp1 mRNA Change (mean log2, ursolic acid diet minus control diet)” value ([1]; mice, gastrocnemius) was 0.35 log2 and the “Sepx1 mRNA Change (mean log2, ursolic acid diet minus control diet)” value ([1]; mice, gastrocnemius) was 0.28 log2. The “Sfpq mRNA Change (mean log2, ursolic acid diet minus control diet)” value ([1]; mice, gastrocnemius) was −0.18 log2, the “Sfrs5 mRNA Change (mean log2, ursolic acid diet minus control diet)” value ([1]; mice, gastrocnemius) was −0.22 log2 and the “Smox mRNA Change (mean log2, ursolic acid diet minus control diet)” value ([1]; mice, gastrocnemius) was 0.81 log2. For the same compound, the “Sod2 mRNA Change (mean log2, ursolic acid diet minus control diet)” value ([1]; mice, gastrocnemius) was 0.12 log2, the “Sqstm1 mRNA Change (mean log2, ursolic acid diet minus control diet)” value ([1]; mice, gastrocnemius) was 0.12 log2 and the “Ssr4 mRNA Change (mean log2, ursolic acid diet minus control diet)” value ([1]; mice, gastrocnemius) was 0.14 log2. For the same compound, the “Trappc2l mRNA Change (mean log2, ursolic acid diet minus control diet)” value ([1]; mice, gastrocnemius) was 0.16 log2, the “Trip10 mRNA Change (mean log2, ursolic acid diet minus control diet)” value ([1]; mice, gastrocnemius) was 0.23 log2 and the “Tyrobp mRNA Change (mean log2, ursolic acid diet minus control diet)” value ([1]; mice, gastrocnemius) was 0.69 log2. The “Ube2l3 mRNA Change (mean log2, ursolic acid diet minus control diet)” value ([1]; mice, gastrocnemius) was 0.16 log2, the “Vps29 mRNA Change (mean log2, ursolic acid diet minus control diet)” value ([1]; mice, gastrocnemius) was 0.20 log2 and the maximal tetanic force [2, 3] was “did not differ between the two groups”. The “muscle weight (extensor digitorum longus and peroneus)” value [2, 3] was “did not differ between the two groups”, the “specific force generated by muscles ex vivo” value ([2]; 0.27% ursolic acid diet 16 weeks, 80 V, 100 Hz) was “increased the specific force generated by muscles ex vivo” and the “fasting blood glucose in high fat fed mice” value (mice; HFD with ursolic acid 0.15% and/or naringenin 0.5% or 1.5%) was “partially prevented”. The “grip strength in high fat fed mice” value (mice; [4]) was “increased strength to a greater extent than naringenin” and the “skeletal muscle weight in high fat fed mice” value (mice; [4]) was “increased muscle weight”.
